The test system of this test is rat full-thickness incisional wounds. Kind of test: Rat incisional wound healing model: tensiometric assessment of wound strength. Format: in vivo. Particulars: single topical treatment. The text has this:
In order to examine the effects of PEP005 on the repair of acute (surgical) incisional wounds, involving minimal new tissue generation, the rat, full-thickness incisional wound healing model, was employed.
Adult male Sprague Dawley rats (Harlan U.K. Ltd., Oxfordshire, U.K.), approximately 8-10 weeks old and weighing between 250-300 g, were used in this study. The animals were initially housed in groups of up to four per cage (cage dimensions 40×25×20 cm, with sawdust bedding, changed twice weekly), according to Home Office regulations, in an environment maintained at an ambient temperature of 23° C. with 12-hour light/dark cycles. The animals were provided food (Standard Rodent Diet) and water ad libitum. In order to acclimatize the animals to their surroundings, prior to experimentation, the animals were housed for a minimum of one week without disturbance, other than to refresh their bedding and to replenish their food and water provisions. Following wounding, animals were monitored under individual housed conditions until fully recovered from the procedure. Animals were then maintained individually for a period of 2 weeks (i.e. until their wounds have fully re-epithelialized). After this initial 2-week period, animals were maintained in groups of up to four for the remainder of the study. All animal procedures were performed in a Home Office licensed establishment, under U.K. Home Office Licences (PPL: 40/2650; PIL: 70/4934 and PIL: 60/7661).
Animals were anaesthetized using inhalation of Halothane and air, and the dorsum of each rat shaved and washed with the bactericide, chlorhexidine gluconate (0.05% aqueous). Four full-thickness incisional wounds (1 cm in length, include the panniculus carnosus and hypodermis) were created on the backs of each animal. Wounds remained unsutured (allowed to gape), in order to allow granulation tissue to form within the wounds. Following wounding (day 0), one of the four PEP005 concentrations (PEP005-free, DMSO/isopropanol gel vehicle, 0.01%, 0.028% or 0.05% PEP005) were applied to each wound, whilst non-treated wound controls remained untreated. […]
Immediately after injury, single treatments of the 0.01%, 0.028% PEP005, or DMSO/isopropanol vehicle gels, were applied at volumes of 10 μl per 100 mm^2 (1 μg/10 μl, 2.8 μg/10 μl and 5 μg/10 μl PEP005, respectively), to the marginal skin surrounding each wound, with a total area of 600 mm^2 of marginal skin receiving treatment. […] Rats were maintained in their respective experimental groups for 1, 4 and 12 weeks, when the animals in each group were euthanized and the condition of wound and peri-wound tissues (in terms of viability, erythema, oedema, etc.), monitored at all assessment points, according to Table 2.1. […]

The structures appear in SMILES notation.

Here are results for one compound from patent US20090215884A1, “METHOD FOR WOUND HEALING” (priority 2005, published 2009).

In the case of `C/C=C(/C)C(=O)O[C@H]1C(C)=C[C@]23C(=O)[C@@H](C=C(CO)[C@@H](O)[C@]12O)[C@H]1[C@@H](C[C@H]3C)C1(C)C` [PEP005, ingenol-3-angelate], the “mean tensile strength of wound” value by setting is: (week 4, 0.01%, 0.028%, 0.05% PEP005 gel) “dose dependent trend, with increasing tensile strength”; (week 12, 0.01% PEP005 gel) “increasing”; (week 12, 0.028% PEP005 gel) “declining at 0.028% to control levels”; (week 12, 0.05% PEP005 gel) “another increase”.
